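Interpolation was linear, between the two tested concentrations surrounding the appropriate level; five concentrations were tested over 48 hours in 96-well plates. Here, GI50 denotes the concentration required for 50% inhibition of growth.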 The source made the active and inactive calls. No stated cut-off is given here; in the data, active = GI50 up to about 1.1 µM and inactive = higher.
Experiments:
Test in all cases: NCI-60 cell line screen, 48 h
786-0 = system: 786-0
A498 = system: A498
A549 = system: A549
ACHN = system: ACHN
BT-549 = system: BT-549
CAKI-1 = system: CAKI-1
CCRF-CEM = system: CCRF-CEM
COLO 205 = system: COLO 205
DU-145 = system: DU-145
EKVX = system: EKVX
HCC 2998 = system: HCC 2998
HCT-116 = system: HCT-116
HCT-15 = system: HCT-15
HL-60 = system: HL-60
HOP-62 = system: HOP-62
HOP-92 = system: HOP-92
HT-29 = system: HT-29
Hs-578T = system: Hs-578T
IGROV-1 = system: IGROV-1
K562 = system: K562
KM12 = system: KM12
LOX IMVI = system: LOX IMVI
M14 = system: M14
MCF7 = system: MCF7
MDA-MB-231 = system: MDA-MB-231
MDA-MB-435 = system: MDA-MB-435
MDA-N = system: MDA-N
MOLT-4 = system: MOLT-4
Malme-3M = system: Malme-3M
NCI-H226 = system: NCI-H226
NCI-H23 = system: NCI-H23
NCI-H460 = system: NCI-H460
NCI-H522 = system: NCI-H522
NCI/ADR-RES = system: NCI/ADR-RES
OVCAR-3 = system: OVCAR-3
OVCAR-4 = system: OVCAR-4
OVCAR-5 = system: OVCAR-5
OVCAR-8 = system: OVCAR-8
PC-3 = system: PC-3
RPMI-8226 = system: RPMI-8226
RXF 393 = system: RXF 393
SF-268 = system: SF-268
SF-295 = system: SF-295
SF-539 = system: SF-539
SK-MEL-28 = system: SK-MEL-28
SK-MEL-2 = system: SK-MEL-2
SK-MEL-5 = system: SK-MEL-5
SK-OV-3 = system: SK-OV-3
SN12C = system: SN12C
SNB-19 = system: SNB-19
SNB-75 = system: SNB-75
SW-620 = system: SW-620
T47D = system: T47D
TK-10 = system: TK-10
U-251 = system: U-251
UACC-257 = system: UACC-257
UACC-62 = system: UACC-62
UO-31 = system: UO-31

For `COc1ccc(C(OCC2OC(n3cnc4c(=O)n(Cc5ccccc5[N+](=O)[O-])nnc43)C(O)C2O)(c2ccccc2)c2ccc(OC)cc2)cc1` (stereo not given), the GI50 (786-0) was 10.8 µM (inactive), the GI50 (A498) was 4.46 µM (inactive) and the GI50 (A549) was 5.57 µM (inactive). For the same compound, the GI50 (ACHN) was 14 µM (inactive), the GI50 (BT-549) was 16.4 µM (inactive) and the GI50 (CAKI-1) was 10.7 µM (inactive). For the same compound, the GI50 (CCRF-CEM) was 3.76 µM (inactive), the GI50 (COLO 205) was 6.84 µM (inactive) and the GI50 (DU-145) was 19.6 µM (inactive). For the same compound, the GI50 (EKVX) was 29.3 µM (inactive), the GI50 (HCC 2998) was 6.97 µM (inactive) and the GI50 (HCT-116) was 5.6 µM (inactive). The GI50 (HCT-15) was 9.31 µM, the GI50 (HL-60) was 2.18 µM (inactive) and the GI50 (HOP-62) was 21.6 µM (inactive). For the same compound, the GI50 (HOP-92) was 2.38 µM (inactive), the GI50 (HT-29) was 4.31 µM (inactive) and the GI50 (Hs-578T) was 20.8 µM (inactive). The GI50 (IGROV-1) was 10.9 µM (inactive), the GI50 (K562) was 4.6 µM (inactive) and the GI50 (KM12) was 13.1 µM (inactive). The GI50 (LOX IMVI) was 6.85 µM (inactive), the GI50 (M14) was 8.51 µM (inactive) and the GI50 (MCF7) was 4.28 µM (inactive). For the same compound, the GI50 (MDA-MB-231) was 14.1 µM (inactive), the GI50 (MDA-MB-435) was 10.4 µM (inactive) and the GI50 (MDA-N) was 7.52 µM (inactive). The GI50 (MOLT-4) was 2.31 µM (inactive), the GI50 (Malme-3M) was 14.7 µM (inactive) and the GI50 (NCI-H226) was 5.92 µM (inactive). For the same compound, the GI50 (NCI-H23) was 13.4 µM (inactive), the GI50 (NCI-H460) was 5.57 µM (inactive) and the GI50 (NCI-H522) was 6.49 µM (inactive). The GI50 (NCI/ADR-RES) was 19.1 µM (inactive), the GI50 (OVCAR-3) was 9.82 µM (inactive) and the GI50 (OVCAR-4) was 20.6 µM (inactive). The GI50 (OVCAR-5) was 27.8 µM (inactive), the GI50 (OVCAR-8) was 8.11 µM (inactive) and the GI50 (PC-3) was 3.85 µM (inactive). For the same compound, the GI50 (RPMI-8226) was 3.36 µM (inactive), the GI50 (RXF 393) was 11.5 µM (inactive) and the GI50 (SF-268) was 16 µM (inactive). The GI50 (SF-295) was 5.97 µM (inactive), the GI50 (SF-539) was 11.8 µM (inactive) and the GI50 (SK-MEL-28) was 16.7 µM (inactive). The GI50 (SK-MEL-2) was 14.7 µM (inactive), the GI50 (SK-MEL-5) was 9.31 µM (inactive) and the GI50 (SK-OV-3) was 20.4 µM (inactive). For the same compound, the GI50 (SN12C) was 6.9 µM (inactive), the GI50 (SNB-19) was 44.9 µM (inactive) and the GI50 (SNB-75) was 45.7 µM (inactive). For the same compound, the GI50 (SW-620) was 17.6 µM (inactive), the GI50 (T47D) was 11.5 µM (inactive) and the GI50 (TK-10) was 9.53 µM (inactive). The GI50 (U-251) was 11 µM (inactive), the GI50 (UACC-257) was 22.2 µM (inactive) and the GI50 (UACC-62) was 12.5 µM (inactive). The GI50 (UO-31) was 11.4 µM (inactive).
In the case of `COc1ccc(C2=NN(C(=O)c3ccc(Cl)cc3)C(O)(c3cc(F)c(Cl)cc3Cl)C2)cc1` (stereo not given), the GI50 (786-0) is reported as > 100 µM (inactive), the GI50 (A498) is reported as 71.6 µM (inactive) and the GI50 (A549) is reported as 49.2 µM (inactive). The GI50 (ACHN) was > 100 µM (inactive), the GI50 (BT-549) was > 100 µM (inactive) and the GI50 (CAKI-1) was 27.4 µM (inactive). For the same compound, the GI50 (CCRF-CEM) was 50.2 µM (inactive), the GI50 (COLO 205) was 93.5 µM (inactive) and the GI50 (DU-145) was > 100 µM (inactive). For the same compound, the GI50 (EKVX) was 6.04 µM (inactive), the GI50 (HCC 2998) was 43.5 µM (inactive) and the GI50 (HCT-116) was 23.4 µM (inactive). The GI50 (HCT-15) was 28.1 µM, the GI50 (HL-60) was 51.5 µM (inactive) and the GI50 (HOP-62) was > 100 µM (inactive). The GI50 (HOP-92) was > 100 µM (inactive), the GI50 (HT-29) was 17.3 µM (inactive) and the GI50 (Hs-578T) was > 100 µM (inactive). For the same compound, the GI50 (IGROV-1) was > 100 µM (inactive), the GI50 (K562) was 40.6 µM (inactive) and the GI50 (KM12) was 24.5 µM (inactive). The GI50 (LOX IMVI) was 77.8 µM (inactive), the GI50 (M14) was 44.8 µM (inactive) and the GI50 (MCF7) was 19 µM (inactive). For the same compound, the GI50 (MDA-MB-231) was > 100 µM (inactive), the GI50 (MDA-MB-435) was 18.6 µM (inactive) and the GI50 (MDA-N) was 22.4 µM (inactive). The GI50 (MOLT-4) was 12.8 µM (inactive), the GI50 (Malme-3M) was > 100 µM (inactive) and the GI50 (NCI-H226) was > 100 µM (inactive). The GI50 (NCI-H23) was 37.6 µM (inactive), the GI50 (NCI-H460) was 56.8 µM (inactive) and the GI50 (NCI-H522) was > 100 µM (inactive). The GI50 (NCI/ADR-RES) was 48.3 µM (inactive), the GI50 (OVCAR-3) was > 100 µM (inactive) and the GI50 (OVCAR-4) was 8.61 µM (inactive). For the same compound, the GI50 (OVCAR-5) was > 100 µM (inactive), the GI50 (OVCAR-8) was > 100 µM (inactive) and the GI50 (PC-3) was 61.9 µM (inactive). For the same compound, the GI50 (RPMI-8226) was 22.9 µM (inactive), the GI50 (RXF 393) was > 100 µM (inactive) and the GI50 (SF-268) was > 100 µM (inactive). The GI50 (SF-295) was > 100 µM (inactive), the GI50 (SF-539) was > 100 µM (inactive) and the GI50 (SK-MEL-28) was > 100 µM (inactive). For the same compound, the GI50 (SK-MEL-2) was 21.7 µM (inactive), the GI50 (SK-MEL-5) was > 100 µM (inactive) and the GI50 (SK-OV-3) was > 100 µM (inactive). For the same compound, the GI50 (SN12C) was 39.1 µM (inactive), the GI50 (SNB-19) was > 100 µM (inactive) and the GI50 (SNB-75) was 15 µM (inactive). The GI50 (T47D) was 57.7 µM (inactive), the GI50 (TK-10) was > 100 µM (inactive) and the GI50 (U-251) was > 100 µM (inactive). The GI50 (UACC-257) was 49.9 µM (inactive), the GI50 (UACC-62) was > 100 µM (inactive) and the GI50 (UO-31) was 16.9 µM (inactive).

From ChEMBL document CHEMBL1201862, “PubChem BioAssay data set” (2004)
